# US7615643B2 (SmithKline Beecham Corporation, priority 2006, dated 2009)
# Biological target: T1, PLK1 (Homo sapiens, UniProt P53350)
# T1 construct: PLK kinase domain (amino acids 21-346 preceded by MKKGHHHHHHD); made in house; host or cells: baculovirus infected T. ni cells
# Experiment: Assay for inhibition of PLK1 (SPA kinase assay)
# Assay type: biochemical
# Settings: 1 μM ATP, 2 nM PLK1 kinase domain, read-out: PLK1 pIC50 (converted)
# Method in brief: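 His-tagged PLK1 kinase domain (aa 21-346, baculovirus/T. ni) at 2 nM with 1 μM ATP plus 33P-γ-ATP and 1 μM biotinylated peptide in 25 mM HEPES pH 7.2, 15 mM MgCl2, 1 mM DTT, 0.15 mg/mL BSA; 1-1.5 h at 22° C. Streptavidin SPA capture read; percent inhibition versus DMSO, EDTA background.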
# T1 sequence (P53350 21-346): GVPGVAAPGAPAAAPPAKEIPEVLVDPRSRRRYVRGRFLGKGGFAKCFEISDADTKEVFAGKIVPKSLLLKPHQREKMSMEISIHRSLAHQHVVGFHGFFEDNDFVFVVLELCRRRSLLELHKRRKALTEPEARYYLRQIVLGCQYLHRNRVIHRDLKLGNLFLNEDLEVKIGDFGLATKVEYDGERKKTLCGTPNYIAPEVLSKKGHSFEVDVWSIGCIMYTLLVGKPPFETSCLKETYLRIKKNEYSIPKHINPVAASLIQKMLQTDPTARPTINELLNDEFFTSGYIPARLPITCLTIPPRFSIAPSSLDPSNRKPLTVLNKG
row,SMILES,IC50
1,"C[C@@H](Oc1cc(-n2cnc3cc(-c4cnn(C)c4)ccc32)sc1C(N)=O)c1cccc(OC2CCN(C)CC2)c1Cl [Example 48, 3-[((1R)-1-{2-Chloro-3-[(1-methyl-4-piperidinyl)oxy]phenyl}ethyl)oxy]-5-[5-(1-methyl-1H-pyrazol-4-yl)-1H-benzimidazol-1-yl]-2-thiophenecarboxamide]",< 0.1 µM
2,"CC(Oc1cc(-n2cnc3cc(-c4cnn(C)c4)ccc32)sc1C(N)=O)c1cccc(OC2CCNCC2)n1 (racemic) [Example 81, (+/−)-5-[5-(1-Methyl-1H-pyrazol-4-yl)-1H-benzimidazol-1-yl]-3-({1-[6-(4-piperidinyloxy)-2-pyridinyl]ethyl}oxy)-2-thiophenecarboxamide]",< 0.1 µM
3,"C[C@@H](Oc1cc(-n2cnc3ccccc32)sc1C(N)=O)c1cccc(OCCN2CCN(C)CC2)c1Cl [Example 17, 5-(1H-benzimidazol-1-yl)-3-{[(1R)-1-(2-chloro-3-{[2-(4-methyl-1-piperazinyl)ethyl]oxy}phenyl)ethyl]ocy}-2-thiophenecarboxamide]",< 0.1 µM
4,"COc1cc2ncn(-c3cc(O[C@H](C)c4cccc(OCC5CCN(C)CC5)c4Cl)c(C(N)=O)s3)c2cc1OC [Example 41, 5-[5,6-Bis(methyloxy)-1H-benzimidazol-1-yl]-3-{[(1R)-1-(2-chloro-3-{[(1-methyl-4-piperidinyl)methyl]oxy}phenyl)ethyl]oxy}-2-thiophenecarboxamide]",< 0.1 µM
5,"C[C@@H](Oc1cc(-n2cnc3cc(Cl)c(Cl)cc32)sc1C(N)=O)c1cccc(OC2CCN(C)CC2)c1Cl [Example 72, 3-[((1R)-1-{2-chloro-3-[(1-methyl-4-piperidinyl)oxy]phenyl}ethyl)oxy]-5-(5,6-dichloro-1H-benzimidazol-1-yl)-2-thiophenecarboxamide]",< 0.1 µM
